Like-named read-outs stand apart in the source and are kept apart here.
How the values were obtained:
in vitro = settings: human, uninfected (mock-infected) CEM-SS cells
HIV-1RF in CEM-SS cells [1] = assay: microbe, parasite or virus in culture; settings: Human immunodeficiency virus 1, CEM-SS, read-out: EC50 (μM), 50% inhibitory concentration for cytopathicity
HIV-1RF in CEM-SS cells [2] = system: HIV-1RF in CEM-SS cells
HIV-1 Clade A in PBMC = assay: microbe, parasite or virus in culture; assay type: cell-based; settings: Human immunodeficiency virus 1, PBMC
HIV-1 NL4-3, RT Y188C = assay type: cell-based
HIV-1 Clade E in PBMC = assay: microbe, parasite or virus in culture; assay type: cell-based; settings: Human immunodeficiency virus 1, PBMC
3TC isolate, RT M184I = assay type: cell-based
HIV-1 NL4-3, RT L74V = assay type: cell-based
HIV-1 ROJO in PBMC = assay: microbe, parasite or virus in culture; assay type: cell-based; settings: Human immunodeficiency virus 1, PBMC
HIV-1 NL4-3, RT A98G = assay type: cell-based
HIV-1 NL4-3, RT K101E = assay type: cell-based
HIV-1 IIIB Wild Type = assay: microbe, parasite or virus in culture; assay type: cell-based; settings: Human immunodeficiency virus 1, IIIB
HIV-1 NL4-3, RT V106A = assay type: cell-based
[3] = system: 129/Cost isolate, RT K103N; assay type: cell-based, HIV-1
HIV-1 Ba-L in Mono/Mac = assay: microbe, parasite or virus in culture; assay type: cell-based; settings: Human immunodeficiency virus 1, BAL
HIV-1 Clade C in PBMC = assay: microbe, parasite or virus in culture; assay type: cell-based; settings: Human immunodeficiency virus 1, PBMC
HIV-1 Clade B in PBMC = assay: microbe, parasite or virus in culture; assay type: cell-based; settings: Human immunodeficiency virus 1, PBMC
HIV-1 TEKI in PBMC = assay: microbe, parasite or virus in culture; assay type: cell-based; settings: Human immunodeficiency virus 1, PBMC
HIV-I Clade F in PBMC = assay: microbe, parasite or virus in culture; assay type: cell-based; settings: Human immunodeficiency virus 1, PBMC
HIV-1 IIIB in CEM-SS = assay: microbe, parasite or virus in culture; assay type: cell-based; settings: Human immunodeficiency virus 1, IIIB
HIV-1 Clade D in PBMC = assay: microbe, parasite or virus in culture; assay type: cell-based; settings: Human immunodeficiency virus 1, PBMC
HIV-1 NL4-3, RT V108I = assay type: cell-based
HIV-1 RF in CEM-SS = assay: microbe, parasite or virus in culture; assay type: cell-based; settings: Human immunodeficiency virus 1, CEM-SS
HIV-1 NL4-3 Wildtype = assay: microbe, parasite or virus in culture; assay type: cell-based; settings: Human immunodeficiency virus 1, NL43, CEM-SS
HIV-1RF in CEM-SS cells [4] = settings: reported previously; cited from earlier work

Compound: COC(=O)c1cc(C(=CCCOS(C)(=O)=O)c2cc(Cl)c(OC)c(C(=O)OC)c2)cc(Cl)c1OC [Compound 19, 3′,3″-Dichloro-4-methanesulfonyloxy-4′,4″dimethoxy-5′,5′-bis(methoxycarbony)-1,1-diphenyl-1-butene]
- CC50 (in vitro): 6900 nM
- EC50 (HIV-1RF in CEM-SS cells [1]): > 6.9 µM

Compound: COC(=O)c1cc(C(=CCCN=[N+]=[N-])c2cc(Cl)c(OC)c(C(=O)OC)c2)cc(Cl)c1OC [Compound 20, 4-Azido-3′,3″-Dichloro-4′,4″dimethoxy-5′,5′-bis(methoxycarbony)-1,1-diphenyl-1-butene]
- CC50 (in vitro): 41800 nM
- TI, therapeutic index (CC50 divided by EC50) (HIV-1RF in CEM-SS cells [2]): 155
- potency relative to the bromo azide 9 (HIV-1RF in CEM-SS cells [2]; inhibition of viral cytopathicity): four times more potent
- EC50 (HIV-1RF in CEM-SS cells [1]): 0.27 µM

Compound: COC(=O)c1cc(C(=CCCN)c2cc(Cl)c(OC)c(C(=O)OC)c2)cc(Cl)c1OC [Compound 21, 4-Amino-3′,3″-Dichloro-4′,4″dimethoxy-5′,5″-bis(methoxycarbony)-1,1-diphenyl-1-butene]
- CC50 (in vitro): 15000 nM
- inhibition of HIV-1 cytopathic effect (in words) (HIV-1RF in CEM-SS cells [2]; HIV-1RF in CEM-SS cells): no detectable inhibitory cytopathic effect was detected
- inhibition of HIV-1 cytopathic effect (in words) (HIV-1RF in CEM-SS cells [2]; at 100 μM): inactive
- EC50 (HIV-1RF in CEM-SS cells [1]): > 6.9 µM

Compound: COC(=O)CCCC=C(c1cc(Cl)c(OC)c(C(=O)OC)c1)c1cc(Cl)c(OC)c(C(=O)OC)c1 [Compound 22, Methyl 3′,3″-Dichloro-4′,4″-dimethoxy-5,5″-bis(methoxycarbonyl)-6,6-diphenylhexenoate]
- EC50 (HIV-1 Clade A in PBMC): 1090 nM
- EC50 (HIV-1 NL4-3, RT Y188C): 10800 nM
- EC50 (HIV-1 Clade E in PBMC): 400 nM
- EC50 (3TC isolate, RT M184I): 1080 nM
- EC50 (HIV-1 NL4-3, RT L74V): 2230 nM
- EC50 (HIV-1 ROJO in PBMC): 2280 nM
- EC50 (HIV-1 NL4-3, RT A98G): 840 nM
- EC50 (HIV-1 NL4-3, RT K101E): 3050 nM
- EC50 (HIV-1 IIIB Wild Type): 390 nM
- EC50 (HIV-1 NL4-3, RT V106A): 12700 nM
- EC50 [3]: 10800 nM
- EC50 (HIV-1 Ba-L in Mono/Mac): 360 nM
- EC50 (HIV-1 Clade C in PBMC): 1040 nM
- EC50 (HIV-1 Clade B in PBMC): 430 nM
- EC50 (HIV-1 TEKI in PBMC): 2200 nM
- CC50 (in vitro): 31600 nM
- EC50 (HIV-I Clade F in PBMC): 1700 nM
- EC50 (HIV-1 IIIB in CEM-SS): 160 nM
- EC50 (HIV-1 Clade D in PBMC): 1020 nM
- EC50 (HIV-1RF in CEM-SS cells [1]): 0.013 µM
- EC50 (HIV-1 NL4-3, RT V108I): 12000 nM
- EC50 (HIV-1 RF in CEM-SS): 910 nM
- EC50 (HIV-1 NL4-3 Wildtype): 1780 nM

Compound: COc1c(Cl)cc(C(=CCC(=O)O)c2cc(Cl)c(OC)c(C(=O)O)c2)cc1C(=O)O [Compound 23, 3′,3″-Dichloro-4′,4″-dimethoxy-5′,5″-bis(carboxy)-4,4-diphenyl-3-butenoic Acid]
- CC50 (in vitro): > 316000 nM
- EC50 (HIV-1RF in CEM-SS cells [1]): > 6.9 µM

Compound: CC1(C)OC(=O)c2cc(C(=CCCO)c3cc(Cl)c4c(c3)C(=O)OC(C)(C)O4)cc(Cl)c2O1 [Compound 30]
- CC50 (in vitro): 18800 nM
- inhibition of HIV-1 cytopathic effect (in words) (HIV-1RF in CEM-SS cells [2]; HIV-1RF in CEM-SS cells): inactive
- EC50 (HIV-1RF in CEM-SS cells [1]): > 6.9 µM

Compound: CC1(C)OC(=O)c2cc(C(=CCCBr)c3cc(Cl)c4c(c3)C(=O)OC(C)(C)O4)cc(Cl)c2O1 [Compound 31, 1-Bromo-4,4-bis(8′,8″-dichloro-2′,2′,2″,2″-tetramethyl-4′,4″-dioxo-6′,6″-0(1,3-benzodioxyl)]-3-butene]
- CC50 (in vitro): 176000 nM
- inhibition of HIV-1 cytopathic effect (in words) (HIV-1RF in CEM-SS cells [2]; HIV-1RF in CEM-SS cells): inactive
- EC50 (HIV-1RF in CEM-SS cells [1]): > 6.9 µM

Compound: CCCCCC=C(c1ccc(OC)c(C(=O)OC)c1)c1ccc(OC)c(C(=O)OC)c1 [Compound 36, 4′,4″-Dimethoxy-3′,3″-bis(methoxycarbonyl)-1,1-diphenyl-1-heptene]
- CC50 (in vitro): 14000 nM
- EC50 (HIV-1RF in CEM-SS cells [1]): > 6.9 µM

Compound: CCCCCC=C(c1cc(I)c(OC)c(C(=O)OC)c1)c1cc(I)c(OC)c(C(=O)OC)c1 [Compound 40, 3′,3″-Diiodo-4′,4″-Dimethoxy-5′,5″-bis(methoxycarbonyl)-1,1-diphenyl-1-heptene]
- CC50 (in vitro): > 316000 nM
- inhibition of HIV-1 cytopathic effect (in words) (HIV-1RF in CEM-SS cells [2]; HIV-1RF in CEM-SS cells): inactivity
- EC50 (HIV-1RF in CEM-SS cells [1]): > 6.9 µM

Compound: CCCCCC=C(c1cc(Cl)c(OC)c(C(=O)OC)c1)c1cc(Cl)c(OC)c(C(=O)OC)c1 [Compound 41]
- potency relative to 1 (HIV-1RF in CEM-SS cells [4]): approximately half as potent as 1
